Measured values from patent US9987259B2 (priority 2011, dated 2018).
Like-named read-outs stand apart in the source and are kept apart here.

Molecular target: human α7 nAChR (Homo sapiens (Human), UniProt P36544)
Assay: cell-based
[1] = HEK293T/17 cells transfected with human α7 nAChR and RIC3, with PNU-120596, fluorescence relative to 1 μM epibatidine, read-out: EC50 of human α7 nAChR

Sequence of human α7 nAChR (P36544 23-502 limits assumed): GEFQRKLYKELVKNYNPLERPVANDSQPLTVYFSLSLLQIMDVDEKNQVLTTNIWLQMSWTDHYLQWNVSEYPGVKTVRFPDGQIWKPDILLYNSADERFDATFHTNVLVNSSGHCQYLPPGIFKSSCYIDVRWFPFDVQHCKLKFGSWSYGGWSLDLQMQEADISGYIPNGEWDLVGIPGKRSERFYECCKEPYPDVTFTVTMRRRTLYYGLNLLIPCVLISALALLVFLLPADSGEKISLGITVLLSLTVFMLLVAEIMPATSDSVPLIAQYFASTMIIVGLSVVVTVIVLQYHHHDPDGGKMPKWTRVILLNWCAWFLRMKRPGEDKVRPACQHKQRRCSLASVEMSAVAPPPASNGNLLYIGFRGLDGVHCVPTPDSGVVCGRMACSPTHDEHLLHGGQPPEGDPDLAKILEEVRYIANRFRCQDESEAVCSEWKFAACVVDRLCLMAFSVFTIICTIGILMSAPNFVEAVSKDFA

O=C(NC1CN2CCC1CC2)c1ccc(=O)n(-c2nccs2)c1 (centres unmarked) [Example 1, N-(1-azabicyclo[2.2.2]octan-3-yl)-6-oxo-1-(2-thiazolyl)-3-pyridinecarboxamide]
EC50: 100 to 500 nM

O=C(N[C@H]1CN2CCC1CC2)c1ccc(=O)n(-c2nccs2)c1 [Example 2, N-[(3R)-1-azabicyclo[2.2.2]octan-3-yl)-6-oxo-1-(2-thiazolyl)-3-pyridinecarboxamide]
EC50: 100 to 500 nM

O=C(N[C@@H]1CN2CCC1CC2)c1ccc(=O)n(-c2nccs2)c1 [Example 3, N-[(3S)-1-azabicyclo[2.2.2]octan-3-yl)-6-oxo-1-(2-thiazolyl)-3-pyridinecarboxamide]
EC50: 100 to 500 nM

O=C(NC1CN2CCC1CC2)c1ccc(=O)n(-c2ccc(Cl)cn2)c1 (centres unmarked) [Example 6, N-(1-azabicyclo[2.2.2]octan-3-yl)-1-(5-chloro-2-pyridinyl)-6-oxo-3-pyridinecarboxamide]
EC50 [1]: > 1000 nM

O=C(NC1CN2CCC1CC2)c1ccc(=O)n(-c2ccc(-c3ccccc3)cn2)c1 (centres unmarked) [Example 7, N-(1-azabicyclo[2.2.2]octan-3-yl)-6-oxo-1-(5-phenyl-2-pyridine-1-yl)-3-pyridinecarboxamide]
EC50: 100 to 500 nM

O=C(NC1CN2CCC1CC2)c1ccc(=O)n(-c2cc(-c3ccccc3)no2)c1 (centres unmarked) [Example 9, N-(1-azabicyclo[2.2.2]octan-3-yl)-6-oxo-1-[3-phenyl-5-isoxazolyl)-3-pyridinecarboxamide]
EC50 [1]: > 1000 nM

Cc1cnc(-n2cc(C(=O)NC3CN4CCC3CC4)ccc2=O)s1 (centres unmarked) [Example 10, N-(1-azabicyclo[2.2.2]octan-3-yl)-1-(5-methyl-2-thiazolyl)-6-oxo-3-pyridinecarboxamide]
EC50: 100 to 500 nM

Cc1cnc(-n2cc(C(=O)N[C@H]3CN4CCC3CC4)ccc2=O)s1 [Example 11, N-[(3R)-1-azabicyclo[2.2.2]octan-3-yl]-1-(5-methyl-2-thiazolyl)-6-oxo-3-pyridinecarboxamide]
EC50 [1]: < 100 nM

Cc1cnc(-n2cc(C(=O)N[C@@H]3CN4CCC3CC4)ccc2=O)s1 [Example 12, N-[(3S)-1-azabicyclo[2.2.2]octan-3-yl]-1-(5-methyl-2-thiazolyl)-6-oxo-3-pyridinecarboxamide]
EC50: 500 to 1000 nM

CCc1cnc(-n2cc(C(=O)NC3CN4CCC3CC4)ccc2=O)s1 (centres unmarked) [Example 13, N-(1-azabicyclo[2.2.2]octan-3-yl)-1-(5-ethyl-2-thiazolyl)-6-oxo-3-pyridinecarboxamide]
EC50: 100 to 500 nM

CCc1cnc(-n2cc(C(=O)N[C@H]3CN4CCC3CC4)ccc2=O)s1 [Example 14, N-[(3R)-1-azabicyclo[2.2.2]octan-3-yl]-1-(5-ethyl-2-thiazolyl)-6-oxo-3-pyridinecarboxamide]
EC50 [1]: < 100 nM

CCc1cnc(-n2cc(C(=O)N[C@@H]3CN4CCC3CC4)ccc2=O)s1 [Example 15, N-[(3S)-1-azabicyclo[2.2.2]octan-3-yl]-1-(5-ethyl-2-thiazolyl)-6-oxo-3-pyridinecarboxamide]
EC50: 100 to 500 nM

CCCc1cnc(-n2cc(C(=O)NC3CN4CCC3CC4)ccc2=O)s1 (centres unmarked) [Example 16, N-(1-azabicyclo[2.2.2]octan-3-yl)-6-oxo-1-(5-propyl-2-thiazolyl)-3-pyridinecarboxamide]
EC50: 100 to 500 nM

CC(C)c1cnc(-n2cc(C(=O)NC3CN4CCC3CC4)ccc2=O)s1 (centres unmarked) [Example 17, N-(1-azabicyclo[2.2.2]octan-3-yl)-6-oxo-1-(5-propan-2-yl-2-thiazolyl)-3-pyridinecarboxamide]
EC50: 100 to 500 nM

CC(C)c1cnc(-n2cc(C(=O)N[C@H]3CN4CCC3CC4)ccc2=O)s1 [Example 18, N-[(3R)-1-azabicyclo[2.2.2]octan-3-yl)-6-oxo-1-(5-propan-2-yl-2-thiazolyl)-3-pyridinecarboxamide]
EC50 [1]: < 100 nM

CC(C)c1cnc(-n2cc(C(=O)N[C@@H]3CN4CCC3CC4)ccc2=O)s1 [Example 19, N-[(3S)-1-azabicyclo[2.2.2]octan-3-yl)-6-oxo-1-(5-propan-2-yl-2-thiazolyl)-3-pyridinecarboxamide]
EC50: 100 to 500 nM

CC(C)(C)c1cnc(-n2cc(C(=O)NC3CN4CCC3CC4)ccc2=O)s1 (centres unmarked) [Example 20, N-(1-azabicyclo[2.2.2]octan-3-yl)-1-(5-tert-butyl-2-thiazolyl)-6-oxo-3-pyridinecarboxamide]
EC50: 100 to 500 nM

CC(C)(C)c1cnc(-n2cc(C(=O)N[C@H]3CN4CCC3CC4)ccc2=O)s1 [Example 21, N-[(3R)-1-azabicyclo[2.2.2]octan-3-yl]-1-[5-tert-butyl-2-thiazolyl]-6-oxo-3-pyridinecarboxamide]
EC50: 100 to 500 nM

CC(C)(C)c1cnc(-n2cc(C(=O)N[C@@H]3CN4CCC3CC4)ccc2=O)s1 [Example 22, N-[(3S)-1-azabicyclo[2.2.2]octan-3-yl]-1-[5-tert-butyl-2-thiazolyl]-6-oxo-3-pyridinecarboxamide]
EC50: 500 to 1000 nM

O=C(NC1CN2CCC1CC2)c1ccc(=O)n(-c2ncc(C3CCCC3)s2)c1 (centres unmarked) [Example 23, N-(1-azabicyclo[2.2.2]octan-3-yl)-1-(5-cyclopentyl-2-thiazolyl)-6-oxo-3-pyridinecarboxamide]
EC50: 100 to 500 nM

O=C(NC1CN2CCC1CC2)c1ccc(=O)n(-c2ncc(C3CCCCC3)s2)c1 (centres unmarked) [Example 24, N-(1-azabicyclo[2.2.2]octan-3-yl)-1-(5-cyclohexyl-2-thiazolyl)-6-oxo-3-pyridinecarboxamide]
EC50: 100 to 500 nM

O=C(NC1CN2CCC1CC2)c1ccc(=O)n(-c2ncc(-c3ccccc3)s2)c1 (centres unmarked) [Example 25, N-(1-azabicyclo[2.2.2]octan-3-yl)-1-(5-phenyl-2-thiazolyl)-6-oxo-3-pyridinecarboxamide]
EC50: 500 to 1000 nM

O=C(NC1CN2CCC1CC2)c1ccc(=O)n(-c2ncc(Cl)s2)c1 (centres unmarked) [Example 26, N-(1-azabicyclo[2.2.2]octan-3-yl)-1-(5-chloro-2-thiazolyl)-6-oxo-3-pyridinecarboxamide]
EC50 [1]: < 100 nM

O=C(N[C@H]1CN2CCC1CC2)c1ccc(=O)n(-c2ncc(Cl)s2)c1 [Example 27, N-[(3R)-1-azabicyclo[2.2.2]octan-3-yl]-1-(5-chloro-2-thiazolyl)-6-oxo-3-pyridinecarboxamide]
EC50: 100 to 500 nM

O=C(N[C@@H]1CN2CCC1CC2)c1ccc(=O)n(-c2ncc(Cl)s2)c1 [Example 28, N-[(3S)-1-azabicyclo[2.2.2]octan-3-yl]-1-(5-chloro-2-thiazolyl)-6-oxo-3-pyridinecarboxamide]
EC50 [1]: > 1000 nM

O=C(NC1CN2CCC1CC2)c1ccc(=O)n(-c2ncc(Cc3ccccc3)s2)c1 (centres unmarked) [Example 29]
EC50: 100 to 500 nM

Cc1csc(-n2cc(C(=O)NC3CN4CCC3CC4)ccc2=O)n1 (centres unmarked) [Example 30, N-(1-azabicyclo[2.2.2]octan-3-yl)-1-(4-methyl-2-thiazolyl)-6-oxo-3-pyridinecarboxamide]
EC50 [1]: > 1000 nM

O=C(NC1CN2CCC1CC2)c1ccc(=O)n(-c2nc3ccccc3s2)c1 (centres unmarked) [Example 33, N-(1-azabicyclo[2.2.2]octan-3-yl)-1-(1,3-benzothiazole-2-yl)-6-oxo-3-pyridinecarboxamide]
EC50: 100 to 500 nM

Cc1nnc(-n2cc(C(=O)NC3CN4CCC3CC4)ccc2=O)s1 (centres unmarked) [Example 42, N-(1-azabicyclo[2.2.2]octan-3-yl)-1-[5-methyl-1,3,4-thiadiazole-2-yl)-6-oxo-3-pyridinecarboxamide]
EC50 [1]: > 1000 nM
